#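 These data come from cells grown in 96-well plates and exposed to compound for 48 hours at five concentrations. The concentration for 50% growth inhibition is given as GI50. The concentration for full growth arrest is given as TGI.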
# How the values were obtained:
# Assay in all cases: growth of human tumour cells (NCI), 48 h
# SN12C renal = system: SN12C renal
# CAKI-1 renal = system: CAKI-1 renal
# NCI/ADR-RES ovarian = system: NCI/ADR-RES ovarian
# A549 NSCLC = system: A549 NSCLC
# MDA-MB-231 breast = system: MDA-MB-231 breast
# SR leukemia = system: SR leukemia
# SF-539 CNS = system: SF-539 CNS
# HOP-62 NSCLC = system: HOP-62 NSCLC
# HS 578T breast = system: HS 578T breast
# T-47D breast = system: T-47D breast
Structure (SMILES),GI50 (SN12C renal) [nM],TGI (SN12C renal) [µM],GI50 (CAKI-1 renal) [nM],TGI (CAKI-1 renal) [µM],GI50 (NCI/ADR-RES ovarian) [µM],TGI (NCI/ADR-RES ovarian) [µM],GI50 (A549 NSCLC) [µM],TGI (A549 NSCLC) [µM],GI50 (MDA-MB-231 breast) [µM],TGI (MDA-MB-231 breast) [µM],GI50 (SR leukemia) [nM],TGI (SR leukemia) [µM],GI50 (SF-539 CNS) [nM],TGI (SF-539 CNS) [µM],GI50 (HOP-62 NSCLC) [µM],TGI (HOP-62 NSCLC) [µM],GI50 (HS 578T breast) [µM],TGI (HS 578T breast) [µM],GI50 (T-47D breast) [nM],TGI (T-47D breast) [µM]
O=[N+]([O-])c1ccc2ncccc2c1Cl,4300,> 100,1690,3.45,3.92,> 100,3.29,> 100,3.46,11.9,308,4.12,2760,34.2,5.64,> 100,7.69,> 100,11200,42.1
C=C1C(=O)O[C@H]2[C@H]1CC/C(COC(=O)c1ccc(C#N)cc1)=C\CC[C@@]1(C)O[C@@H]21,2220,5.75,,,4.25,18.8,6,20.5,2.2,5.24,548,> 100,1640,3.28,7.43,22.6,3.04,15.9,1740,5.24
COc1ccc(-c2csc(-c3cc(Cl)cc(Cl)c3Cl)n2)cc1,> 100000,> 100,> 100000,> 100,52.2,> 100,68.3,> 100,60,> 100,7050,32.4,41800,> 100,> 100,> 100,46.8,> 100,40300,> 100
C=C(C)[C@@H]1CC[C@]2(COC3CCCCO3)CC[C@]3(C)[C@H](CC[C@@H]4[C@@]5(C)C=C(C=O)C(=O)C(C)(C)[C@@H]5CC[C@]43C)[C@@H]12 (some centres undefined),2060,5.57,1340,2.61,3.16,26.9,1.56,3.15,1.81,3.82,1520,6.78,1210,2.58,1.75,3.19,1.39,3.77,1330,3.01
CCc1nc(Cl)nc(Cl)c1Cl,,6.69,,1.15,,9.41,,9.56,,13.1,,0.444,,9.65,,21.2,,9.39,,22
O=C(O)C1(Cc2cccc(Nc3nccs3)n2)CCC(Oc2cccc(Cl)c2F)CC1 (centres undefined),11400,46.6,12400,38.8,3.48,> 65.4,5.8,> 60,14.7,41.6,419,50.3,6730,24.4,6.77,56.2,10.4,64,15800,> 100
CC1=C[S+](c2ccccc2)c2cccc3cc4ccccc4c1c23 (centres undefined),172,1.25,815,8.02,3.87,> 55.3,0.309,3.59,1.69,4.48,297,2.14,350,1.28,0.486,,0.385,14.8,217,1.25
O=C1CCc2c(sc3[nH]c(=S)n(Cc4ccccc4)c(=O)c23)C1,3250,> 100,2540,8.31,3.25,> 100,3.29,> 100,4.54,> 100,2300,8.22,2150,5.61,3.84,> 100,3.09,> 100,2410,43.9
Cc1cc(C)nc(SC2=C(Nc3cccc(Cl)c3C)C(=O)N(Cc3ccccc3)C2=O)n1,,,> 160000,> 160,> 160,> 160,> 160,> 160,> 160,> 160,> 160000,> 160,> 160000,> 160,> 160,> 160,> 160,> 160,> 160000,> 160
COc1ccc(-c2cc(=O)c3c(O)cc(C)cc3o2)cc1OC,,> 100,,,,> 100,,> 100,,> 100,,> 100,,> 100,,> 100,,> 100,,> 100
C/C(Cc1ccc(Cl)cc1)=C(/c1ccc(Cl)cc1)c1ccc(OCCN(C)C)cc1,4180,8.59,4630,8.98,4.8,9.88,4.52,10.3,4.27,8.71,991,3.81,4770,9.22,6.07,11.8,4.72,11,3830,9.92
C#CCOc1cccc(Nc2ncnc3ccc(NC(=O)CCl)cc23)c1,300,> 79.8,220,12.7,0.817,> 100,0.225,> 44,1.07,30.8,74.3,17.9,2830,7.23,4.2,> 53.2,4.12,> 100,3440,30.9
CCOC(=O)Nc1ccc(-c2nc(-c3cccc(OC)c3)c(-c3ccnc(Br)c3)[nH]2)cc1,2770,> 100,,,2.35,7.73,3.07,> 100,3.27,> 100,2880,> 100,1760,4.56,,,1.68,6.15,1960,6.47
CC(=O)[O][Hg][c]1ccccc1,234,0.644,964,2.89,1.7,5.74,,,0.732,2.09,143,0.537,1420,2.83,1.62,3.11,0.289,1.67,163,0.382
O=C(CCCCCCSc1nc(-c2ccc(Cl)cc2)cc(-c2ccc(Cl)cc2)n1)NO,1600,6.24,1340,4.76,0.998,2.97,1.42,5.1,2.15,13.3,,,1530,5.57,1.52,6.47,3.23,> 50,1390,9.13
Nc1nnc(Cn2c(-c3ccccc3)nc3ccc(Br)cc3c2=O)s1,18100,77.6,25100,> 100,41.2,> 100,25,> 100,36.2,> 100,,,32900,> 100,36.8,> 100,41.4,> 100,> 100000,> 100
NC(=O)/C=C/NC(=O)/C=N\O,,> 100,,> 100,,> 100,,,,> 100,,> 100,,> 100,,> 100,,> 100,,> 100
O=C1C(Cl)=C(Nc2cccc(O)c2)C(=O)N1c1ccccc1Cl,17300,46.4,40300,> 100,56.3,> 100,50,> 100,5.68,42.4,7000,40.2,,,32.9,> 100,21,77.7,32300,> 100
CSc1ccc(/C=C/c2ccnc3ccccc23)cc1,,28.8,,,,29.5,,25,,30.8,,32.9,,32.7,,34.8,,43.4,,41.7
COc1ccc(Cn2cc3c(c2-c2cc(OC)c(OC)c(OC)c2)CCc2cnoc2-3)cc1[N+](=O)[O-],4110,> 100,747,> 60.4,0.364,,1,> 100,2.13,> 41.2,,,1120,13.8,2.85,> 100,1.13,,3580,> 100
COc1cnc2c(c1)C(=O)c1c-2n(CCCN2CCCC2)c(=O)c2cc(F)ccc12,214,10,,,0.467,3.19,0.0936,0.351,0.926,2.96,144,1.26,360,1.48,0.212,0.687,1.69,13.5,218,10.2

# Source: PubChem BioAssay (NCI)
